# Assay results as given in patent publication US9833497B2, “Human originated EGF domain proteins and use of the same” (CHENGDU SOURCEBIO LIMITED-LIABILITY COMPANY, priority 2013, dated 2017).
# How the values were obtained:
# Format in all cases: cell-based
# Serratia marcescens = assay: MIC against Gram-negative bacteria: Serratia marcescens; settings: for MIC against S. marcescens: Serratia marcescens; for MIC against S. marcescens / MIC (μg/mL) S. marcescens / MIC S. marcescens: 5×10^5 CFU/mL
# Summary of the method: (§1)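 Antibacterial activity of purified human EGF domain proteins: two-fold concentration series, triplicate wells, LB broth, 5×10^5 CFU/mL bacteria, 37° C shaking incubation. The lowest concentration without growth defines the MIC.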
# E. coli BL21 = assay: MIC against Gram-negative bacteria: E. coli BL21; settings: for MIC against E. coli BL21 / MIC (μg/mL) E. coli BL21 / MIC E. coli BL21: 5×10^5 CFU/mL
# Summary of the method: as §1
# Pseudomonas aeruginosa = assay: MIC against Gram-negative bacteria: Pseudomonas aeruginosa; settings: for MIC against P. aeruginosa: Pseudomonas aeruginosa; for MIC against P. aeruginosa / MIC (μg/mL) P. aeruginosa / MIC P. aeruginosa: 5×10^5 CFU/mL
# Summary of the method: as §1
# Proteus vulgaris = assay: MIC against Gram-negative bacteria: Proteus vulgaris; settings: for MIC against P. vulgaris: Proteus vulgaris; for MIC against P. vulgaris / MIC (μg/mL) P. vulgaris / MIC P. vulgaris: 5×10^5 CFU/mL
# Summary of the method: as §1
# Moraxella catarrhalis = assay: MIC against Gram-negative bacteria: Moraxella catarrhalis; settings: for MIC against M. catarrhalis: Moraxella catarrhalis; for MIC against M. catarrhalis / MIC (μg/mL) M. catarrhalis / MIC M. catarrhalis: 5×10^5 CFU/mL
# Summary of the method: as §1
# Citrobacter diversus = assay: MIC against Gram-negative bacteria: Citrobacter diversus; settings: for MIC against C. diversus: Citrobacter diversus; for MIC against C. diversus / MIC (μg/mL) C. diversus / MIC C. diversus: 5×10^5 CFU/mL
# Summary of the method: as §1
# Proteus mirabilis = assay: MIC against Gram-negative bacteria: Proteus mirabilis; settings: for MIC against P. mirabilis: Proteus mirabilis; for MIC against P. mirabilis / MIC (μg/mL) P. mirabilis / MIC P. mirabilis: 5×10^5 CFU/mL
# Summary of the method: as §1
# Klebsiella pneumonia = assay: MIC against Gram-negative bacteria: Klebsiella pneumonia; settings: for MIC against K. pneumonia: Klebsiella pneumonia; for MIC against K. pneumonia / MIC (μg/mL) K. pneumonia / MIC K. pneumonia: 5×10^5 CFU/mL
# Summary of the method: as §1
# E. coli DH5α = assay: Antibacterial activity: MIC and growth curve against E. coli DH5α in 96-well plate; settings: minimal inhibitory concentration against E. coli DH5α; 96-well plate, 5×10^5 CFU/mL, 37° C., judged after 8 h
# Summary of the method: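 MIC taken as lowest protein level with no bacterial growth, tracked by A600 every 30 min during 37 °C, 175 rpm culture. Two-fold protein series 50-12.5 μg/mL final, triplicate wells, against 5×10^5 CFU/mL of LB-washed mid-log cells.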
# Enterobacter cloacae = assay: MIC against Gram-negative bacteria: Enterobacter cloacae; settings: for MIC against E. cloacae: Enterobacter cloacae; for MIC against E. cloacae / MIC (μg/mL) E. cloacae / MIC E. cloacae: 5×10^5 CFU/mL
# Summary of the method: as §1
# Aeromonas hydrophila = assay: MIC against Gram-negative bacteria: Aeromonas hydrophila; settings: for MIC against A. hydrophila: Aeromonas hydrophila; for MIC against A. hydrophila / MIC (μg/mL) A. hydrophila / MIC A. hydrophila: 5×10^5 CFU/mL
# Summary of the method: as §1
# [1] = E. coli BL21, 10 h cultivation at 37° C.
# [2] = S. marcescens, 10 h cultivation at 37° C.
# [3] = P. aeruginosa, 10 h cultivation at 37° C.
# [4] = P. vulgaris, 10 h cultivation at 37° C.
# [5] = M. catarrhalis, 10 h cultivation at 37° C.
# [6] = C. diversus, 10 h cultivation at 37° C.
# [7] = P. mirabilis, 10 h cultivation at 37° C.
# [8] = K. pneumonia, 10 h cultivation at 37° C.
# [9] = E. cloacae, 10 h cultivation at 37° C.
# [10] = A. hydrophila, 10 h cultivation at 37° C.
substance,measurement,setting,value
PRT1347 (NVDECLSQPCKNGATCKDGANSFRCLCAAGFTGSHCE; listed as Homo sapiens),MIC against S. marcescens,Serratia marcescens; 10 h cultivation at 37° C.,12.5 µg/mL
same,MIC against E. coli BL21,E. coli BL21; [1],12.5 µg/mL
same,MIC against P. aeruginosa,Pseudomonas aeruginosa; 10 h cultivation at 37° C.,25 µg/mL
same,MIC against P. vulgaris,Proteus vulgaris; 10 h cultivation at 37° C.,100 µg/mL
same,MIC against M. catarrhalis,Moraxella catarrhalis; 10 h cultivation at 37° C.,25 µg/mL
same,MIC against C. diversus,Citrobacter diversus; 10 h cultivation at 37° C.,12.5 µg/mL
same,MIC against P. mirabilis,Proteus mirabilis; 10 h cultivation at 37° C.,50 µg/mL
same,MIC against K. pneumonia,Klebsiella pneumonia; 10 h cultivation at 37° C.,50 µg/mL
same,MIC,E. coli DH5α,25 µg/mL
same,MIC against E. cloacae,Enterobacter cloacae; 10 h cultivation at 37° C.,25 µg/mL
same,MIC against A. hydrophila,Aeromonas hydrophila; 10 h cultivation at 37° C.,25 µg/mL
PRT894 (NLDDCASSPCDSGTCLDKIDGYECACEPGYTGSMCN; listed as Homo sapiens),MIC,Serratia marcescens; [2],12.5 µg/mL
same,MIC,E. coli BL21; [1],50 µg/mL
same,MIC,Pseudomonas aeruginosa; [3],12.5 µg/mL
same,MIC,Proteus vulgaris; [4],50 µg/mL
same,MIC,Moraxella catarrhalis; [5],50 µg/mL
same,MIC,Citrobacter diversus; [6],12.5 µg/mL
same,MIC,Proteus mirabilis; [7],12.5 µg/mL
same,MIC,Klebsiella pneumonia; [8],50 µg/mL
same,MIC,E. coli DH5α,12.5 µg/mL
same,MIC,Enterobacter cloacae; [9],12.5 µg/mL
same,MIC,Aeromonas hydrophila; [10],50 µg/mL
PRT841 (PEDECANGHHDCNETQNCHDQPHGYECSCKTGYTMDNMT; listed as Homo sapiens),MIC (μg/mL) S. marcescens,Serratia marcescens; [2],12.5 µg/mL
same,MIC (μg/mL) E. coli BL21,E. coli BL21; [1],25 µg/mL
same,MIC (μg/mL) P. aeruginosa,Pseudomonas aeruginosa; [3],12.5 µg/mL
same,MIC (μg/mL) P. vulgaris,Proteus vulgaris; [4],50 µg/mL
same,MIC (μg/mL) M. catarrhalis,Moraxella catarrhalis; [5],50 µg/mL
same,MIC (μg/mL) C. diversus,Citrobacter diversus; [6],12.5 µg/mL
same,MIC (μg/mL) P. mirabilis,Proteus mirabilis; [7],12.5 µg/mL
same,MIC (μg/mL) K. pneumonia,Klebsiella pneumonia; [8],50 µg/mL
same,MIC,E. coli DH5α,12.5 µg/mL
same,MIC (μg/mL) E. cloacae,Enterobacter cloacae; [9],12.5 µg/mL
same,MIC (μg/mL) A. hydrophila,Aeromonas hydrophila; [10],50 µg/mL
PRT685 (DVNECLEGDFCFPHGECLNTDGSFACTCAPGYRPGPRGASCL; listed as Homo sapiens),MIC S. marcescens,"Serratia marcescens; 96-well plate, 37° C., 10 h",50 µg/mL
same,MIC E. coli BL21,"E. coli BL21; 96-well plate, 37° C., 10 h",25 µg/mL
same,MIC P. aeruginosa,"Pseudomonas aeruginosa; 96-well plate, 37° C., 10 h",12.5 µg/mL
same,MIC P. vulgaris,"Proteus vulgaris; 96-well plate, 37° C., 10 h",50 µg/mL
same,MIC M. catarrhalis,"Moraxella catarrhalis; 96-well plate, 37° C., 10 h",50 µg/mL
same,MIC C. diversus,"Citrobacter diversus; 96-well plate, 37° C., 10 h",12.5 µg/mL
same,MIC P. mirabilis,"Proteus mirabilis; 96-well plate, 37° C., 10 h",25 µg/mL
same,MIC K. pneumonia,"Klebsiella pneumonia; 96-well plate, 37° C., 10 h",50 µg/mL
same,MIC,E. coli DH5α,50 µg/mL
same,MIC E. cloacae,"Enterobacter cloacae; 96-well plate, 37° C., 10 h",12.5 µg/mL
same,MIC A. hydrophila,"Aeromonas hydrophila; 96-well plate, 37° C., 10 h",50 µg/mL
PRT713 (GTNVCARDNGGCKQLCLYRGNSRRTCACAHGYLAEDGVTCL; listed as Homo sapiens),MIC S. marcescens,"Serratia marcescens; 96-well plate, 37° C., 10 h",50 µg/mL
same,MIC E. coli BL21,"E. coli BL21; 96-well plate, 37° C., 10 h",25 µg/mL
same,MIC P. aeruginosa,"Pseudomonas aeruginosa; 96-well plate, 37° C., 10 h",12.5 µg/mL
same,MIC P. vulgaris,"Proteus vulgaris; 96-well plate, 37° C., 10 h",12.5 µg/mL
same,MIC M. catarrhalis,"Moraxella catarrhalis; 96-well plate, 37° C., 10 h",12.5 µg/mL
same,MIC C. diversus,"Citrobacter diversus; 96-well plate, 37° C., 10 h",50 µg/mL
same,MIC P. mirabilis,"Proteus mirabilis; 96-well plate, 37° C., 10 h",50 µg/mL
same,MIC K. pneumonia,"Klebsiella pneumonia; 96-well plate, 37° C., 10 h",12.5 µg/mL
same,MIC,E. coli DH5α,50 µg/mL
same,MIC E. cloacae,"Enterobacter cloacae; 96-well plate, 37° C., 10 h",50 µg/mL
same,MIC A. hydrophila,"Aeromonas hydrophila; 96-well plate, 37° C., 10 h",12.5 µg/mL
PRT1274 (DVDECAEGNGGCQQSCVNMMGSYECHCREGFFLSDNQ; listed as Homo sapiens),MIC against S. marcescens,"Serratia marcescens; 96-well plate, 37° C., 10 h",25 µg/mL
same,MIC against E. coli BL21,"E. coli BL21; E. coli BL21, 96-well plate, 37° C., 10 h",50 µg/mL
same,MIC against P. aeruginosa,"Pseudomonas aeruginosa; 96-well plate, 37° C., 10 h",12.5 µg/mL
same,MIC against P. vulgaris,"Proteus vulgaris; 96-well plate, 37° C., 10 h",50 µg/mL
same,MIC against M. catarrhalis,"Moraxella catarrhalis; 96-well plate, 37° C., 10 h",12.5 µg/mL
same,MIC against C. diversus,"Citrobacter diversus; 96-well plate, 37° C., 10 h",25 µg/mL
same,MIC against P. mirabilis,"Proteus mirabilis; 96-well plate, 37° C., 10 h",25 µg/mL
same,MIC against K. pneumonia,"Klebsiella pneumonia; 96-well plate, 37° C., 10 h",50 µg/mL
same,MIC,E. coli DH5α,12.5 µg/mL
same,MIC against E. cloacae,"Enterobacter cloacae; 96-well plate, 37° C., 10 h",12.5 µg/mL
same,MIC against A. hydrophila,"Aeromonas hydrophila; 96-well plate, 37° C., 10 h",50 µg/mL
PRT256 (CHLHARCVSQEGVARCRCLDGFEGDGFSC; listed as Homo sapiens),MIC (μg/mL) S. marcescens,Serratia marcescens; [2],25 µg/mL
same,MIC (μg/mL) E. coli BL21,E. coli BL21; [1],12.5 µg/mL
same,MIC (μg/mL) P. aeruginosa,Pseudomonas aeruginosa; [3],25 µg/mL
same,MIC (μg/mL) P. vulgaris,Proteus vulgaris; [4],12.5 µg/mL
same,MIC (μg/mL) M. catarrhalis,Moraxella catarrhalis; [5],12.5 µg/mL
same,MIC (μg/mL) C. diversus,Citrobacter diversus; [6],25 µg/mL
same,MIC (μg/mL) P. mirabilis,Proteus mirabilis; [7],25 µg/mL
same,MIC (μg/mL) K. pneumonia,Klebsiella pneumonia; [8],12.5 µg/mL
same,MIC,E. coli DH5α,25 µg/mL
same,MIC (μg/mL) E. cloacae,Enterobacter cloacae; [9],25 µg/mL
same,MIC (μg/mL) A. hydrophila,Aeromonas hydrophila; [10],12.5 µg/mL
